From patent US20240116920A1 (priority 2020, published 2024)

Key:
JAK3 = target: T1, JAK3 (Homo sapiens, UniProt P52333); test: biochemical
T1 sequence (P52333 1-1124): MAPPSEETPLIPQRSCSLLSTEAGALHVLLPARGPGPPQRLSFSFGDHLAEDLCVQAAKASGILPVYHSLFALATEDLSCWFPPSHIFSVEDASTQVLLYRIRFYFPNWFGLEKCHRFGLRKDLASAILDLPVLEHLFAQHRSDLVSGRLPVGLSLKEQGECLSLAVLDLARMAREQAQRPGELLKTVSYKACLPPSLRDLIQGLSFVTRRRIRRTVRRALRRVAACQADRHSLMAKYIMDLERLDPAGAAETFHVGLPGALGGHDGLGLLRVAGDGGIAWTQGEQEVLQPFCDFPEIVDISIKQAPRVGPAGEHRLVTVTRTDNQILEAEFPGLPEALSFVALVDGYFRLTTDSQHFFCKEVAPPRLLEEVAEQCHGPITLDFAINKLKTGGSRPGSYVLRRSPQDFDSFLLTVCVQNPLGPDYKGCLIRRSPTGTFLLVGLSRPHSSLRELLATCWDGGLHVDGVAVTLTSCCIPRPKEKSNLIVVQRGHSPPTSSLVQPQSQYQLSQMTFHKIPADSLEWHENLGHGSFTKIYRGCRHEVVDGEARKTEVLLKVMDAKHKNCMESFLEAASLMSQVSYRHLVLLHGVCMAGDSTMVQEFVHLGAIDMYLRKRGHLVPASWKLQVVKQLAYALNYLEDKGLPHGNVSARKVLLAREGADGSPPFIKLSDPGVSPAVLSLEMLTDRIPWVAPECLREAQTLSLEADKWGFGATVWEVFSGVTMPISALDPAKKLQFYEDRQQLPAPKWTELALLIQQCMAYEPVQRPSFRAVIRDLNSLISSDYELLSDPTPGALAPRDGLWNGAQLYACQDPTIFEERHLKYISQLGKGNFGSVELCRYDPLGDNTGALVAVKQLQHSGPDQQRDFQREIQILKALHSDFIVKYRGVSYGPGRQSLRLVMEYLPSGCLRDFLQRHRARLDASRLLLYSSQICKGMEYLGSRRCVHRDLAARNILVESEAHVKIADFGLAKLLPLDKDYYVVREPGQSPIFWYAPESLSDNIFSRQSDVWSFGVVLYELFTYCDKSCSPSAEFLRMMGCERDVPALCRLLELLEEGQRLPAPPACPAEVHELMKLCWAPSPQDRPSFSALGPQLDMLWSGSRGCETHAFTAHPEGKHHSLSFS

JAK2 = JAK2 (Homo sapiens, UniProt O60674); test: biochemical
Chain of JAK2 (O60674 whole entry): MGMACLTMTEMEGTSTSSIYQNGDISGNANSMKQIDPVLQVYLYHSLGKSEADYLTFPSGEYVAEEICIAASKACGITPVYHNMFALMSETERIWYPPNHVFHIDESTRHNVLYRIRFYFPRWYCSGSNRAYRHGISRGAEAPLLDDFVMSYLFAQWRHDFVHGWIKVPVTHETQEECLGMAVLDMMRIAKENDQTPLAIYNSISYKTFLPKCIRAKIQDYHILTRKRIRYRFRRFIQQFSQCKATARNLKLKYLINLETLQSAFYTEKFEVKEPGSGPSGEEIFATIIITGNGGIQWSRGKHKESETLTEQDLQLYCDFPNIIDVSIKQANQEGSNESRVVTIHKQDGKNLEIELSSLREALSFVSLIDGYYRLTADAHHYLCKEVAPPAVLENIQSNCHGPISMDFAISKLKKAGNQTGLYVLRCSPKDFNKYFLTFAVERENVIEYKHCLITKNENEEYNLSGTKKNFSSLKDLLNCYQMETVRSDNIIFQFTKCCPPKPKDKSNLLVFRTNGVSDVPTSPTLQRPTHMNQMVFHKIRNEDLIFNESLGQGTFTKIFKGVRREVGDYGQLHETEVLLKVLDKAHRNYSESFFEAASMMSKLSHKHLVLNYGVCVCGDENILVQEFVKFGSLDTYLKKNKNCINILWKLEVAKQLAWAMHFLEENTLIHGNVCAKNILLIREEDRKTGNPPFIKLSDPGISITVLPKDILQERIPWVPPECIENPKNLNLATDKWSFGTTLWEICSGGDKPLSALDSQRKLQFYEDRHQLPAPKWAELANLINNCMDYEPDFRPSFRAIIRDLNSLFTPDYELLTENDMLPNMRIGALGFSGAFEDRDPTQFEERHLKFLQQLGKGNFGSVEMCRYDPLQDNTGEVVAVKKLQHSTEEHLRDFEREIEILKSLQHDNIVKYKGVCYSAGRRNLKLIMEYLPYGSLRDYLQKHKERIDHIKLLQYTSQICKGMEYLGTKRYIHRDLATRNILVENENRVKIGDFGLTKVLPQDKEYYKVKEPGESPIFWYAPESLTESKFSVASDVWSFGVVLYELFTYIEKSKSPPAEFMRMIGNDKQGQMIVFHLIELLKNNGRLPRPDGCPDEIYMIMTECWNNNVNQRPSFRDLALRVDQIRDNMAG

TYK2 = TYK2 (Homo sapiens, UniProt P29597); test: biochemical
Chain of TYK2 (P29597 whole entry): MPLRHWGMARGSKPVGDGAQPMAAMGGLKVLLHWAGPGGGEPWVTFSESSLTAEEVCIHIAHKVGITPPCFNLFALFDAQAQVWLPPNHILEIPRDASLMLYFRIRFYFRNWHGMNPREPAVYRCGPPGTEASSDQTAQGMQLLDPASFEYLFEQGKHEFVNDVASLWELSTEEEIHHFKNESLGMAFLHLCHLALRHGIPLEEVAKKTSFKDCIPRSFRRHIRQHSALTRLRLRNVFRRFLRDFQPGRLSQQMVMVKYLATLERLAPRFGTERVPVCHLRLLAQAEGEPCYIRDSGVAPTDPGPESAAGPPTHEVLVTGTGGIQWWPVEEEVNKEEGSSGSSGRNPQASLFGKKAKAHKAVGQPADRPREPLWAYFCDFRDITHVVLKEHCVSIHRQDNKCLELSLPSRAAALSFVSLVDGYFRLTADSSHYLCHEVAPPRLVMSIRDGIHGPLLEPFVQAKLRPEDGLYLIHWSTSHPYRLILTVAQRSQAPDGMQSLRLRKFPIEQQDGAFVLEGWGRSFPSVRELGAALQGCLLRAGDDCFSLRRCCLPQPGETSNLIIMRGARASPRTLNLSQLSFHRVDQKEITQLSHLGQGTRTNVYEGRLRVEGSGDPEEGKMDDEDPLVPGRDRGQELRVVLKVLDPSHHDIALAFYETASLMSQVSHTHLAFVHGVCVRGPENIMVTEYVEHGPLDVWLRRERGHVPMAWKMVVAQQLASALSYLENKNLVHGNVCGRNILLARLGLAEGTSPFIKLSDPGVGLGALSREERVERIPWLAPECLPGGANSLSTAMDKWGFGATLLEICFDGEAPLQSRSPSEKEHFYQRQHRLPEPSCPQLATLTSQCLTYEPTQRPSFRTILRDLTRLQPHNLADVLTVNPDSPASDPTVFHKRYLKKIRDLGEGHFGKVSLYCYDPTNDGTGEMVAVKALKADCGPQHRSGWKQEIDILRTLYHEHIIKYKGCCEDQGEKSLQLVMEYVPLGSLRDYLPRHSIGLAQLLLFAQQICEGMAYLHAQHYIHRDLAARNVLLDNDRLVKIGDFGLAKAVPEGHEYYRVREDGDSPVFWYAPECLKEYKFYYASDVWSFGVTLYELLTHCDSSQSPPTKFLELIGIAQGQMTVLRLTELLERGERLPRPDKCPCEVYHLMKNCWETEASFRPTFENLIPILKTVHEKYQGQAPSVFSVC

JAK1/STAT3 signaling = test: Immunobit cell-based pSTAT3 and pSTAT5 immunoassay; design: species or system human
[1] = test system: LX-2 human hepatic stellate cells; test: TGF-β-induced LX-2 cell proliferation (CCK8); assay type: cell-based

| Compound | IC50 (JAK3) | IC50 (JAK2) | IC50 (TYK2) | effect on JAK/STAT signaling (pSTAT3, pSTAT5) (JAK1/STAT3 signaling) | inhibitory effect on LX-2 proliferation induced by TGF-β ([1]; LX-2, TGF-β-induced, CCK8) | inhibitory effect on LX-2 cell growth versus tofacitinib or filgotinib ([1]; incubation with TGF-β for 72 h) |
| --- | --- | --- | --- | --- | --- | --- |
| CNC(=O)c1cnc2[nH]ccc2c1N[C@@H]1CCN(Cc2cnc(C(F)(F)F)nc2)[C@H](C)C1 (racemic) [compound 49] | 8.39 nM | 8.78 nM | 36.9 nM | – | – | – |
| O=C(Nc1nc2cccc(-c3ccc(CN4CCS(=O)(=O)CC4)cc3)n2n1)C1CC1 [filgotinib] | – | – | – | reduced pSTAT3 and pSTAT5, but with less effect than 31g | – | – |
| COC(=O)c1ccc2c(c1)NC(=O)/C2=C(\Nc1ccc(N(C)C(=O)CN2CCN(C)CC2)cc1)c1ccccc1 [nintedanib] | – | – | – | did not affect the JAK/STAT pathway | dose-dependent inhibitory effects | superior to those of tofacitinib or filgotinib |
